In patent publication US20160281125A1, “ANTIMICROBIAL COMPOUND SUSCEPTIBILITY TEST” (priority 2013, published 2016):

What was measured:
[1] = tested on: K. pneumo KPC 41217; assay: Selective lysis test, OD600 turbidity (Example 1); type: cell-based, Klebsiella pneumoniae
Description: (§1) An isolated colony from an overnight Tryptocase Soy Agar (TSA) plate of each bacterial strain was suspended in 1 ml Tryptocasc Soy Broth (TSB) in a 5 ml BD polystyrene round bottom tube. TSB cultures were incubated shaking at 37° C. overnight. Ten of the overnight culture was inoculated into lml TSB and incubated shaking at 37° C. for three hours. Two […] aliquots of each log-phase culture were then transferred to two 2 ml Eppendorf microcentrifuge tubes. One tube contained 5000 of Normal Saline (BD); the second tube contained 5000 Normal Saline with meropenem at 10 μg/ml (final concentration of meropenem of 6.67 10 μg/ml). Tubes were inverted and then incubated at 37° C. stagnant for thirty minutes. Then […] of lysis buffer (0.5% SDS in PSB) (final concentration of SDS of 0.125%) was added to each tube and the tubes were vortexed for 5 seconds. Post incubation, all tubes were spun at 10000 G for 5 minutes. Supernatant was decanted and the pellet resuspended in Normal Saline. Tubes were vortexed again. OD600 was measured using Eppendorf uvettes in a spectrophotometer. The delta between the OD600 of the normal saline control and the OD600 for the test sample exposed to meropenem in normal saline was used to determine susceptibility of the bacterial strain to meropenem.
(§2) The tested resistant strains were Klebsiella pneumoniae carbapenemase (KPC)-producing bacteria (abbreviated “KPC”), KPC-producing Klebsiella oxytoca (abbreviated “KPC K. oxy), and Klebsiella pneumoniae producing Metallo-beta-lactamase-1 (NDM-1) (abbreviated “NDM”).

[2] = tested on: K. pneumo KPC 24605; assay: Selective lysis test, OD600 turbidity (Example 1); type: cell-based, Klebsiella pneumoniae
Description: as §1, §2

[3] = tested on: K. pneumo KPC 1705; assay: Selective lysis test, OD600 turbidity (Example 1); type: cell-based, Klebsiella pneumoniae
Description: as §1, §2

[4] = tested on: K. pneumo KPC 65707; assay: Selective lysis test, OD600 turbidity (Example 1); type: cell-based, Klebsiella pneumoniae
Description: as §1, §2

[5] = tested on: K. pneumo KPC 4121; assay: Selective lysis test, OD600 turbidity (Example 1); type: cell-based, Klebsiella pneumoniae
Description: as §1, §2

[6] = tested on: K. pneumo KPC KPC12; assay: Selective lysis test, OD600 turbidity (Example 1); type: cell-based, Klebsiella pneumoniae
Description: as §1, §2

[7] = tested on: K. pneumo NDM 2146; assay: Selective lysis test, OD600 turbidity (Example 1); type: cell-based, Klebsiella pneumoniae
Description: as §1, §2

[8] = tested on: K. pneumo KPC 12213; assay: Selective lysis test, OD600 turbidity (Example 1); type: cell-based, Klebsiella pneumoniae
Description: as §1, §2

[9] = tested on: K. oxy KPC 46532; assay: Selective lysis test, OD600 turbidity (Example 1); type: cell-based, Klebsiella oxytoca
Description: as §1, §2

[10] = tested on: E. clo 13047; assay: Selective lysis test, OD600 turbidity (Example 1); type: cell-based, Enterobacter cloacae
Description: as §1

[11] = tested on: K. pneumo 13882 (NDM−); assay: Selective lysis test, flow cytometry cell count (Example 5); type: cell-based, K. pneumoniae; design: key to R or S: R: meropenem resistant strain; S: meropenem sensitive strain
Description: (§3) An isolated colony from overnight Tryptocase Soy Agar (TSA) plate for each bacteria was suspended in 1 ml Tryptocase Soy Broth (TSB) in a 5 ml BD polystyrene round bottom tube. TSB cultures were incubated at 37° C. overnight. Ten μl of overnight culture was inoculated into 1 ml TSB and incubated shaking at 37° C. for three hours. Two 250 μl aliquots of each log-phase culture were transferred to two 2 ml Eppendorf microcentrifuge tubes. One tube contained 500 μl of Normal Saline (BD); the second tube contained 504.1 Normal Saline with meropenem at 10 μg/ml. Tubes were inverted then incubated at 37° C. stagnant for thirty minutes. An aliquot was removed at this point for flow cytometry measurement of the total cell count. Then 250 μl lysis buffer (0.5% SDS in PSB) was added to each tube and each tube was vortexed for 5 seconds. Post incubation, all tubes were spun at 10000 G for 5 minutes. Supernatant was decanted and the pellet resuspended in Normal Saline. Tubes were vortexed.
(§4) Re-suspended pellets were then diluted 20 times into a solution of 10 mM Tris-HCl pH=7.6, containing 2.5 μM SYTO 9 (stain permeable to all bacterial cells). Stained bacterial cells were analyzed by flow cytometry using the Guava EasyCyte™ Mini System equipped with a 488 nm diode laser, capillary flow cell, forward and side scatter detectors and fluorescence (green, yellow and red) detectors. Flow cytometry dot plots were acquired with CytoSoft (Guava ExpressPlus) software and cell counts were obtained.

[12] = tested on: K. pneumo BAA2146 (NDM+); assay: as above; type: cell-based, K. pneumoniae; design: key to R or S: R: meropenem resistant strain; S: meropenem sensitive strain
Description: as §3, §4

[13] = OD600 vs control without meropenem
[14] = meropenem 10 μg/ml, 30 min, SDS lysis buffer + vortex
[15] = K. pneumo 13882 (NDM−), 10 μg/ml Meropenem, Post-lysis + spin
[16] = K. pneumo BAA2146 (NDM+), 10 μg/ml Meropenem, Post-lysis + spin

`C[C@@H](O)[C@H]1C(=O)N2C(C(=O)O)=C(S[C@@H]3CN[C@H](C(=O)N(C)C)C3)[C@H](C)[C@H]12` [meropenem] was tested, and the “R or S” value [1] was “R”, the “% Change” value [1, 13] was 5% and the “Mero OD600” value [1, 14] was 1.764. The “R or S” value [2] was “R”, the “% Change” value [2, 13] was 6% and the “Mero OD600” value [2, 14] was 2.0363. The “R or S” value [3] was “R”, the “% Change” value [3, 13] was −32% and the “Mero OD600” value [3, 14] was 1.65. For the same compound, the “R or S” value [4] was “R”, the “% Change” value [4, 13] was 12% and the “Mero OD600” value [4, 14] was 1.887. The “R or S” value [5] was “R”, the “% Change” value [5, 13] was −3% and the “Mero OD600” value [5, 14] was 1.734. For the same compound, the “R or S” value [6] was “R”, the “% Change” value [6, 13] was 2% and the “Mero OD600” value [6, 14] was 1.844. For the same compound, the “R or S” value [7] was “R”, the “% Change” value [7, 13] was 18% and the “Mero OD600” value [7, 14] was 1.576. The “R or S” value [8] was “R”, the “% Change” value [8, 13] was −5% and the “Mero OD600” value [8, 14] was 1.454. For the same compound, the “R or S” value [9] was “S (a percentage change of greater than about 85% indicates a strain is susceptible)”, the “% Change” value [9, 13] was 71% and the “Mero OD600” value [9, 14] was 0.259. The “R or S” value [10] was “S (a percentage change of greater than about 85% indicates a strain is susceptible)”, the “% Change” value [10, 13] was 95% and the “Mero OD600” value [10, 14] was 0.06. For the same compound, the “Cell Number/ml” value [11, 15] was 241000 mL⁻¹, the “R or S” value [11, 15] was “S” and the “Cell Number/ml” value ([11]; K. pneumo 13882 (NDM−), 10 μg/ml Meropenem, Pre-lysis) was 2.38e+06 mL⁻¹. For the same compound, the “reduction in cell number after lysis and centrifugation” value ([11]; K. pneumoniae 13882 (NDM−), meropenem treated sample, post-lysis vs pre-lysis) was 90%, the “Cell Number/ml” value [12, 16] was 2.83e+06 mL⁻¹ and the “R or S” value [12, 16] was “R”. For the same compound, the “Cell Number/ml” value ([12]; K. pneumo BAA2146 (NDM+), 10 μg/ml Meropenem, Pre-lysis) was 3.04e+06 mL⁻¹ and the “reduction in cell number after lysis and centrifugation” value ([12]; K. pneumoniae BAA2146 (NDM+), meropenem treated sample, post-lysis vs pre-lysis) was 7%.
